Experimental data as given in paper PMC9055924 (RSC Advances, 2020).

Target: T1, TLP-1 (Prunus mume, UniProt A0ABM0NSQ8)
T1 sequence (A0ABM0NSQ8 27-249): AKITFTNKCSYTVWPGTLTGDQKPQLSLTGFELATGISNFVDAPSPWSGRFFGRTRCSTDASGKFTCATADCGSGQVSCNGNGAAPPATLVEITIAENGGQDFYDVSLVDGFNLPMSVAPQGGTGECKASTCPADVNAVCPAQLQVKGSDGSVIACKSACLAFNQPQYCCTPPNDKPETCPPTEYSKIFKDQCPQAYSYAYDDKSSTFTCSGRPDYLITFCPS
Assay: catechol oxidation, absorbance at […] nm
Assay type: biochemical
Conditions: read-out: Relative activity (%) / 10 (mM)

For `CCCCCCc1ccc(O)cc1O` [4-Hexylresorcinol], the activity at 10000 µM was 15.6 ± 0.44%.
Work on `NC(=O)CC[C@H](N)C(=O)O` [L-Glutamine] yielded an activity at 10000 µM of 83.5 ± 2.24%.
